From patent publication US12410141B2, “Anti-cancer spirocyclic-guanidine compounds and uses thereof” (The Johns Hopkins University, priority 2020, dated 2025)

How the values were obtained:
[1] = Microsomal stability, human liver microsomes; format: in vitro ADME; conditions: for % Drug Remaining: Human Liver Microsomes
Procedure: (§1) Human and mouse liver microsomes and NADPH regenerating system solutions were purchased from Corning Life Sciences (Tewsbury, MA). Human and mouse K2EDTA was purchased from BioIVT (Westbury, NY). Metabolic studies in liver microsomes (0.125 mg/mL) were conducted in 1× phosphate buffered saline (pH 7.4), NADPH-generating system, and 10 μM of RA475 in a final volume of 250 μl. An incubation mixture with and without NADPH-generating system as well as a neat solution without microsomes and NADPH-generating system were prepared. RA475 was added at the same concentration level into human and mouse EDTA plasma. All reactions were initiated with the addition of RA475. Incubations were performed in glass tubes maintained at 37° C. in a shaker bath. At 0, 30, and 60 minutes, 10 μL aliquots were sampled from the reaction mixture and 0.5 mL of acetonitrile containing internal standard (Up284) was added to each samples. Samples were vortex-mixed and underwent centrifugation for 5 min at 1430×g. A 10 μL aliquot of the supernatant was injected onto the LC-MS instrument for qualitative analysis using a temperature-controlled autosampling device operating at 5° C. Chromatographic analysis was performed using a Waters Acquity™ Ultra Performance LC. […] The mobile phase used for the chromatographic separation was composed of water (mobile phase A) and acetonitrile (mobile phase B) containing 0.1% (v/v) formic acid with a flow rate of 0.3 mL/min. The initial mobile phase composition was 80% mobile phase A and 20% mobile phase B. From 0.5 to 1 min, mobile phase B was increased linearly from 20% to 100%. From 1 to 3 min, mobile phase B was maintained at 100%. From 3.0 to 3.1 min, the gradient decreased to 20% mobile phase B and the conditions were maintained until 4.1 min to re-equilibrate the column for the next injection. The column effluent was monitored using an AB Sciex 5500 triple quadrupole mass spectrometer. The instrument was equipped with an electrospray interface, operated in a positive mode and controlled by the Analyst v1.6 software. For the stability study, the mass spectrometer was programmed to monitor the following MRM transition 408.2→366.1 for RA475 and 366.2→155.8 for UP284 (internal standard). Results were assessed qualitatively comparing the average area ratio of RA475 at 0 hr to area ratio at 30 and 60 minutes for both mouse and human liver microsomes. RA475 was not analyzed for metabolites due to the concentration of RA475 not decreasing.

[2] = Neat solution stability; format: physicochemical; conditions: 10 μM, 37° C.
Procedure: as §1

[3] = tested on: 4UbFL reporter in leg muscle of CD-1 mice; assay: On-target activity in vivo using 4UbFL; design: species or system mouse; conditions: 40 mg/Kg single i.p. dose
Procedure: A patch was shaved of hair on one leg of CD-1 mice, and 10 μg 4UbFL plasmid in 20 μL of PBS was injected into the quadriceps femoralis muscle followed immediately by injection of the 2 Needle Array to 5 mm depth encompassing the injection site and square wave electroporation (ElectroSquarePorator 833, BTX-2 Needle array 5 mm gap, Harvard apparatus) delivered as eight pulses at 106V for 20 ms with 200 ms intervals. One day post electroporation, mice were anesthetized with isoflurane, injected i.p. with luciferin (0.3 mg in 100 μL water) and optical imaging was performed to determine basal level luciferase expression. Images were acquired for 10 min with a Xenogen IVIS 200 (Caliper, Hopkinton, MA). Equally sized areas were analyzed using Living Image 2.20 software. Mice were imaged weekly during treatment. Mice were randomized into three groups (n=5) and treated i.p. once with Vehicle (25% (w/v) β-Hydroxypropylcyclodextrin in water, Sigma Aldrich), RA475 (40 mg/Kg) and Up284 (40 mg/Kg) and mice were imaged again at 4 hr, 24 hr, 48 hr, 72 hr and 96 hr later.
To assess on-target activity in vivo, 4UbFL plasmid was injected into the muscle of one leg of CD-1 mice followed by electroporation. Luciferin was injected i.p. 24 hr later and the mice were tagged and imaged using an IVIS200 to visualize their basal bioluminescence. The mice were then immediately randomized to 3 groups and treated with vehicle alone (25% β-hydroxypropylcyclodextrin-water solution), RA475 (40 mg/Kg) and Up284 (40 mg/Kg) administered as a single i.p. dose. To examine the on-target activity, the mice were imaged again at 4 hr, 24 hr, 48 hr, 72 hr and 96 hr later.

[4] = tested on: high molecular weight polyubiquitinated proteins in SKOV3 cells; assay: Western blot for polyubiquitinated proteins, SKOV3 cells; format: cell-based; conditions: 12 hr, Up284 and RA475 0.5 and 1 μM, RA190 1 μM
Procedure: Cell lysate (10-20 μg total protein) prepared in MPER (Pierce) from each sample was subjected to SDS-PAGE, transferred to PVDF membranes and analyzed by Western blot using antibodies specific for ubiquitin (P4D1, sc-8017, Santa Cruz), or after stripping antibody for actin (#66009, Protein Tech Group), at the dilutions recommended by the manufacturers, and for secondary antibodies either peroxidase-linked anti-mouse IgG or anti-rabbit IgG (GE Healthcare UK Ltd) were utilized at the recommended dilution. The blots were developed using HyGLO chemiluminescent detection reagent (Denville).
Like RA190, RA475 was designed to be an inhibitor of upstream 19S RP proteasome function. […] Treatment with the same doses of Up284 (0.5 and 1 μM) or 1 μM RA190 provided positive controls, and vehicle alone (DMSO) was used as the negative control. At the end of the incubation, attached cells were lysed using MPER buffer according to the manufacturer's protocol. The lysates were subjected to Western blot analysis using antibody to ubiquitin, and then stripped and re-probed with actin antibody to provide a loading control (FIG. 5).
Proteasome inhibitors cause a rapid accumulation of polyUb proteins that is associated with unresolved UPR stress and the induction of apoptosis. Since RA475 is cytotoxic to ovarian cancer cells (Table 1), and induces such a rapid accumulation of polyUb proteins (FIG. 5), it was examined whether RA475 also triggered apoptosis. SKOV3 cells (FIG. 5A) were treated with Up284 (0.5 μM and 1 μM), 1 μM RA190, RA475 (0.5 μM and 1 μM) or vehicle alone (DMSO) and then cultured for 12 hr. OVCAR3 cells (FIG. 5B) were treated with Up284 (0.5 μM), Bortezomib (Bz, 0.25 μM), Ixazomib (Iz, 0.25 μM), RA475 (0.5 μM and 1 μM) or vehicle alone (DMSO). The attached cells were harvested and their lysates were subjected to Western blot analysis, first probed with antibody to ubiquitin and then to actin.

Cl.Cl.N#Cc1ccc(/C=C2/C(=O)/C(=C/c3ccc(C#N)cc3)C23CCN(C(=N)N)CC3)cc1 [RA475]
% Drug Remaining ([1]; NADPH Neg, 0 minutes): 100%
% Drug Remaining ([1]; NADPH Neg, 30 minutes): 99%
% Drug Remaining ([1]; NADPH Neg, 60 minutes): 93%
% Drug Remaining ([1]; NADPH Pos, 0 minutes): 100%
% Drug Remaining ([1]; NADPH Pos, 30 minutes): 112%
% Drug Remaining ([1]; NADPH Pos, 60 minutes): 102%
maximal decrease of area ratio ([1]; human liver microsomes lacking NADPH regeneration solution): 7%
% Drug Remaining ([2]; 0 minutes): 100%
% Drug Remaining ([2]; 30 minutes): 108%
% Drug Remaining ([2]; 60 minutes): 111%
increase in bioluminescence at the site of electroporation over baseline ([3]; 4 hr after administration): 24 fold
increase in bioluminescence at the site of electroporation over baseline ([3]; 24 hr after administration): 6 fold
accumulation of polyUb proteins [4]: very significant increase in a dose-dependent manner

N#Cc1ccc(/C=C2/C(=O)/C(=C/c3ccc(C#N)cc3)C23CCNCC3)cc1 [Up284, reference compound]
% Drug Remaining ([1]; NADPH Neg, 0 minutes): 100%
% Drug Remaining ([1]; NADPH Neg, 30 minutes): 57%
% Drug Remaining ([1]; NADPH Neg, 60 minutes): 52%
% Drug Remaining ([1]; NADPH Pos, 0 minutes): 100%
% Drug Remaining ([1]; NADPH Pos, 30 minutes): 43%
% Drug Remaining ([1]; NADPH Pos, 60 minutes): 43%
% Drug Remaining ([2]; 0 minutes): 100%
% Drug Remaining ([2]; 30 minutes): 86%
% Drug Remaining ([2]; 60 minutes): 78%
increase in bioluminescence at the site of electroporation over baseline ([3]; 24 hr after administration): ~3 fold
accumulation of polyUb proteins [4]: profound accumulation
